Columns and labels:
tumour = experiment: local delivery of rhodamine on an implant; type: in vivo; settings: delivering 40 or 50 mg locally on implant
From the text: Furthermore, the lethal dose can be greatly exceeded. […] Such a dose, delivered systemically, would require 100 g of rhodamine, more than 1000 times the lethal dose.

prostate tumours = settings: clinical trial, cited from earlier work
[1] = maximal tolerated dose of Rhodamine 123 delivered intravenously in man; type: in vivo; settings: 70 kg patient, each injection
Procedure: Because inhibitors of oxidative phosphorylation are toxic to a subject in the doses needed for efficacy via the systemic route, such inhibitors have been largely overlooked for effective treatment of conditions such as cancer. […] It is also known that the maximal tolerated dose of Rhodamine 123 delivered intravenously in man is 95 mg/m^2. For a 70 kg patient, the tolerated dose of systemically delivered rhodamine is about 150 mg for each injection.

rhodamine
tumour outcome (tumour): leads to tumour death
effect on prostate tumours (prostate tumours; maximum non-lethal systemic doses): did not shown any significant effect
accumulation in the prostate of the patients (prostate tumours; systemic delivery): accumulation was confirmed
tolerated dose of systemically delivered rhodamine [1]: about 150 mg

Reference: patent US20070292478A1 (priority 2004, published 2007)
